Like-named read-outs stand apart in the source and are kept apart here.
Columns and labels:
[1] = in words; cited from earlier work
[2] = cited from earlier work
[3] = rhesus monkey, in vivo
Procedure: Three adult male Rhesus monkeys were used for planar scintigraphic imaging. Anesthesia was induced with ketamine and maintained with 1-2% halothane in a 70/30 mixture of nitrous oxide and oxygen.
All acquisitions were performed using a Picker Digital Dyna Camera and a Siemens MicroDELTA terminal/MAXDELTA system. A high resolution parallel-hole collimator ("HEX48") was mounted on the camera. The general static acquisition protocol was employed, using an acquisition matrix of 128 by 128 pixels, in word mode. Linearity, Z- and uniformity correction as provided for in the camera console, were employed and maintained.
To provide correction for attenuation, a transmission image of each animal was required. This had to be acquired in such a fashion as to permit the location of individual organs to be delineated from an aligned emission image. To do this, an 18-inch commercial refillable flood source (Nuclear Associates, Carle Place, N.Y.) was filled with water on a flat, horizontal surface. It was then loaded with between 20 mCi (740 Mbq) and 30 mCi (1110 Mbq) of Tc99mO4^-, and placed on a rolling cart. A Picker high-resolution collimator was then placed atop the source and the cart positioned under the patient examination table of the camera.
For each animal, a transmission image was acquired immediately prior to the control study injection, in the following fashion: An initial "flood" image was taken of the collimated source with neither the animal nor the examination table in place. Without moving anything else, the examination table, with the anesthetized animal, was placed between the source and the camera. Images were then taken of both the upper and lower portions of the body using a 128×128 pixel matrix in word mode. Table positioning was restricted by the track system so that positioning markers were necessary only for the dimension parallel to the animal's vertical axis.
Without moving the camera, the source was withdrawn and removed from the room. Adjustments to the camera-subject distance were made only by raising or lowering the table. The control compound was then injected and the control study begun. In this way, organs could be identified from the control study and the regions applied to the transmission study to determine attenuation correction factors on a per-organ basis. In addition, an "efficiency" factor was determined from images taken of a small flask containing a measured amount of radioactivity.
Following the injection of Tc-99m labeled materials, images were acquired of each animal using "spot" views over the upper and lower portions of the body with conjugate views (i.e. 180-degree opposed views) for each.
The resulting image data was analyzed by creating regions of interest (ROI's) for each organ and determining the sum of the recorded gamma photons for each organ in each view. From the transmission view, an attenuation correction factor was derived for each organ and the activity in the organ determined by taking the square root of the product of the ROI sums for conjugate views of the organ and then multiplying by the attenuation correction factor for that organ and then by the efficiency factor.
Each animal was imaged with Tc-99m-(L,L)-N,N'-1,2-ethylenediylbiscysteine, diethyl ester in order to serve as its own control. One test isomer was then administered to each of the monkeys. Frequent blood samples were drawn from a peripheral leg vein. Regions of interest were drawn around all pertinent organs and time-activity curves were constructed.

Row | Biodistribution: Brain ([3]; 30 min) | Biodistribution: Gall Bladder ([3]; 30 min) | Biodistribution: Urinary Bladder ([3]; 30 min) | Biodistribution: Brain ([3]; 60 min) | Biodistribution: Gall Bladder ([3]; 60 min) | Biodistribution: Urinary Bladder ([3]; 60 min) | Molecule | Route / rate of renal elimination ([2]; in words) | also measured
1 | – | – | – | – | – | – | O=C(O)CNC(=O)c1ccccc1[123I] [Example I-123-OIH] | – | radiation burden to the patient [1]: much lower radiation burden to the patient
2 | – | – | – | – | – | – | O=C(O)CNC(=O)c1ccccc1[131I] [Example I-131-OIH, I-131-o-iodohippurate] | rapidly removed from the blood by active tubular secretion | renal extraction efficiency ([2]; in vivo): 65-80%; radiation burden to the patient [1]: significant radiation burden to the patient
3 | – | – | – | – | – | – | Nc1ccc(C(=O)NCC(=O)O)cc1 [PAH, p-aminohippuric acid] | – | removed from the plasma by active secretion into the tubules ([2]; in vivo): approximately 70%
4 | 1.7 percentage of the initial inje | 5.5 percentage of the initial inje | 5.0 percentage of the initial inje | 1.4 percentage of the initial inje | 5.2 percentage of the initial inje | 15 percentage of the initial inje | Tc-99m-(D,D)-N,N'-1,2-ethylenediylbiscysteine, diethyl ester [Example 5] | – | –
5 | 5.8 percentage of the initial inje | 10 percentage of the initial inje | 29 percentage of the initial inje | 5.6 percentage of the initial inje | 17 percentage of the initial inje | 42 percentage of the initial inje | Tc-99m-(L,L)-N,N'-1,2-ethylenediylbiscysteine, diethyl ester [Example 4] | – | –
6 | – | – | – | – | – | – | Tc-99m-diethylenetriamine pentaacetic acid [Tc-99m-DTPA] | eliminated entirely or nearly entirely by glomerular filtration | maximum extraction efficiency ([2]; in vivo): 20-25%
7 | – | – | – | – | – | – | Tc-99m-mercaptoacetyltriglycine [Tc-99m-MAG3] | secreted by the kidneys selectively by tubular secretion and approximately as rapidly as OIH | organ specificity ([2]; in words): less than desired
8 | 2.1 percentage of the initial inje | 2.7 percentage of the initial inje | 4.2 percentage of the initial inje | 1.8 percentage of the initial inje | 6.4 percentage of the initial inje | 4.0 percentage of the initial inje | anti-Tc-99m-(D,L)-N,N'-1,2-ethylenediylbiscysteine, diethyl ester [Example 3] | – | –
9 | 3.4 percentage of the initial inje | 2.2 percentage of the initial inje | 58 percentage of the initial inje | 3.0 percentage of the initial inje | 6.2 percentage of the initial inje | 74 percentage of the initial inje | syn-Tc-99m-(D,L)-N,N'-1,2-ethylenediylbiscysteine, diethyl ester [Example 2] | – | Renal excretion [3]: most rapidly excreted; Uptake in other organs / liver activity [3]: low uptake in other organs, especially the gall bladder

From patent US5688485A, “Radiolabelled complexes of ester-substituted diaminethiols” (The DuPont Merck Pharmaceutical Company, priority 1992, dated 1997)
